System: human myeloma cell line MM.1S
Assay: SILAC acetylated-lysine peptide profiling, HDAC inhibitor vs DMSO (light/heavy ratio)
Format: cell-based
Description: An embodiment of the invention comprises utilizing the SILAC method in order to quantitate changes in protein expression between two or more populations of cells. The SILAC method is a technique based on mass spectrometry that detects differences in protein abundance among samples using non-radioactive isotopic labeling. The SILAC method is known in the art, and described in detail in Ong et al., “Stable Isotope Labeling by Amino Acids in Cell Culture, SILAC, as a Simple and Accurate Approach to Expression Proteomics”, Molecular & Cellular Proteomics, vol. 1, pp. 376-386 (2002), which is incorporated herein by reference in its entirety.
Briefly, the SILAC method involves growing two populations of cells in cell culture. The first population of cells is grown in growth media containing normal amino acids (“normal media”). The second population of cells is grown in media lacking a standard essential amino acid (such as lysine), but is then supplemented with a non-radioactive, isotopically labeled form of that essential amino acid (such as lysine labeled with ^13C atoms, rather than normal ^12C atoms), which is called “heavy media”. When the two populations of cells are each growing in the medium, they incorporate the amino acids into all of their proteins. The growth of cells maintained in the heavy media is no different from that in normal media. All peptides containing the heavy amino acids are heavier than their normal counterparts. The cells from each of the two populations of cells are lysed. The lysates from each of the two cell populations are then combined. The combined cell lysates are then analyzed by mass spectrometry. Pairs of chemically identical peptides of different stable isotope composition can be differentiated in a mass spectrometer due to their difference in mass. The ratio of peak intensities in the mass spectrum for such peptide pairs reflects the abundance ratio for the two proteins.
This example describes SILAC studies that were performed to compare the effects of three different HDAC inhibitors (Compound A, Compound B, and tubastatin A) to a control on a human multiple myeloma cell line. The HDAC inhibitors were also compared amongst themselves to determine differences in their effects.
A human myeloma cell line MM.1S was grown using either ^12C (light) or ^13C (heavy) lysine containing culture medium. The “heavy” cells were treated with DMSO as the control, and the “light” cells were treated with a single HDAC inhibitor at 37° C. for 6 hours. The heavy and light cells were lysed, and the lysates were mixed in 1:1 ratio and digested with the protease trypsin. The acetylated lysine containing peptides (due to the action of the HDAC inhibitor) in the digested peptide pool were captured by a non-specific anti-acetylated lysine antibody cocktail (the antibodies identify both light and heavy acetylated peptides), and subjected to mass spectrometry analysis in order to identify thousands of individual peptides.
Thousands of peptides were identified in pairs (^12C and ^13C) due to their known mass differences. The amino acid sequence and quantitative ratio (Light/Heavy) of a given peptide in two differentially treated cell lysates were then determined and annotated with their possible protein (gene) sources.
As stated above, three HDAC inhibitors (Compound A, Compound B, and Tubastatin A) were used. Thus, the SILAC method was performed three times, with a different HDAC inhibitor compared to a control each time. Accordingly, there are three pairs of quantitative data in the table below, i.e., Compound A:DMSO, Compound B:DMSO, and Tubastatin A:DMSO. A cut-off of 1.30 fold of change (increase or decrease) was then used to determine “changed” or “+” in the table, and any peptides with a fold of change less than 1.3 fold were determined to be “unchanged” or “0” in the table. Those peptides that were not identified were marked as “NA” in the table. […]

In the case of `O=C(CCCCCCNC(=O)c1cnc(N(c2ccccc2)c2ccccc2)nc1)NO` [Compound A, 2-(diphenylamino)-N-(7-(hydroxyamino)-7-oxoheptyl)pyrimidine-5-carboxamide], the “light to heavy ratio (L/H ratio) of acetylated peptide AIFAGYK(ac)R (SEQ ID NO: 300)” value (60S ribosomal protein L35a [15], RPL35A, drug:DMSO) is reported as 0.86 log 2, the “light to heavy ratio (L/H ratio) of acetylated peptide KIEISQHAK(ac)YTCSFCGK (SEQ ID NO: 351)” value (60S ribosomal protein L37a [36], RPL37A, drug:DMSO) is reported as 0.00 log 2 and the “light to heavy ratio (L/H ratio) of acetylated peptide SIDLK(ac)DK (SEQ ID NO: 572)” value (60 kDa heat shock protein mitochondrial [87], gene HSPD1, inhibitor:DMSO) is reported as 0.42 log 2. The “light to heavy ratio (L/H ratio) of acetylated peptide VMEHFIK(ac)LYK (SEQ ID NO: 276)” value (78 kDa glucose-regulated protein [268], HSPA5, drug:DMSO) was 0.54 log 2, the “light to heavy ratio (L/H ratio) of acetylated peptide AK(ac)[…] (SEQ ID NO: 266)” value (78 kDa glucose-regulated protein [326], HSPA5, drug:DMSO) was 0.44 log 2 and the “light to heavy ratio (L/H ratio) of acetylated peptide FK(ac)[…] (SEQ ID NO: 333)” value (116 kDa U5 small nuclear ribonucleoprotein component [790], EFTUD2, drug:DMSO) was 0.00 log 2. The “L/H ratio of acetylated peptide […](ac)LAR (SEQ ID NO: 19)” value (ACADVL [428], log 2 scale, drug vs DMSO) was 0.00, the “L/H ratio of acetylated peptide LDHLAEK(ac)FR (SEQ ID NO: 20)” value (ACTN1 [398], log 2 scale, drug vs DMSO) was 0.00 and the “light to heavy ratio (L/H ratio) of acetylated peptide IFGSNK(ac)WTTEQQQR (SEQ ID NO: 306)” value (ADP-ribosylation factor-like protein 6-interacting protein 1 [96], ARL6IP1, drug:DMSO) was 1.00 log 2. For the same compound, the “light to heavy ratio (L/H ratio) of acetylated peptide TTLLYK(ac)LK (SEQ ID NO: 624)” value (ADP-ribosylation factor-like protein 11 [31], gene ARL11, inhibitor:DMSO) was 0.49 log 2, the “light to heavy ratio (L/H ratio) of acetylated peptide IFK(ac)SDGLR (SEQ ID NO: 280)” value (ADP/ATP translocase 1 [166], SLC25A4, drug:DMSO) was 0.56 log 2 and the “light to heavy ratio (L/H ratio) of acetylated peptide ITK(ac)SDGIR (SEQ ID NO: 587)” value (ADP/ATP translocase 3 [166], gene SLC25A6, inhibitor:DMSO) was 0.44 log 2. For the same compound, the “L/H ratio of acetylated peptide” value (AK(ac)HDELTYF (SEQ ID NO: 497), Cystatin-B [91], CSTB) was −0.88 log 2, the “light to heavy ratio (L/H ratio) of acetylated peptide, log 2 scale” value (ALDLNLK(ac)HQILPK (SEQ ID NO: 248), Cytochrome b-c1 complex subunit 7 [72], UQCRB) was −0.50 and the “L/H ratio of acetylated peptide LK(ac)[…] (SEQ ID NO: 21)” value (ANP32B [101], log 2 scale, drug vs DMSO) was 0.00. For the same compound, the “L/H ratio of acetylated peptide […](ac)SLYGK (SEQ ID NO: 22)” value (ANXA6 [63], log 2 scale, drug vs DMSO) was 0.00, the “L/H ratio of acetylated peptide MYFDK(ac)[…] (SEQ ID NO: 23)” value (ATAD3A [491], log 2 scale, drug vs DMSO) was 0.00 and the “L/H ratio of acetylated peptide IVEYEK(ac)EMEK (SEQ ID NO: 24)” value (ATP5H [117], log 2 scale, drug vs DMSO) was 0.00. The “L/H ratio of acetylated peptide YYNK(ac)YINVK (SEQ ID NO: 12)” value (ATP5J2 [54], log 2 scale, drug vs DMSO) was 0.54, the “light to heavy ratio (L/H ratio) of acetylated peptide QNK(ac)LEQVEK (SEQ ID NO: 271)” value (ATP synthase subunit O mitochondrial [54], ATP50, drug:DMSO) was 0.46 log 2 and the “light to heavy ratio (L/H ratio) of acetylated peptide STVAQLVK(ac)R (SEQ ID NO: 552)” value (ATP synthase subunit alpha mitochondrial [261], gene ATP5A1, inhibitor:DMSO) was 0.39 log 2. For the same compound, the “light to heavy ratio (L/H ratio) of acetylated peptide ISEQSDAK(ac)LK (SEQ ID NO: 600)” value (ATP synthase subunit alpha mitochondrial [539], gene ATP5A1, inhibitor:DMSO) was 0.46 log 2, the “light to heavy ratio (L/H ratio) of acetylated peptide […](ac)ETIAK (SEQ ID NO: 307)” value (ATP synthase subunit b mitochondrial [233], ATP5F1, drug:DMSO) was 1.00 log 2 and the “light to heavy ratio (L/H ratio) of acetylated peptide LVPLK(ac)ETIK (SEQ ID NO: 507)” value (ATP synthase subunit beta mitochondrial [485], gene ATP5B, inhibitor:DMSO) was −0.64 log 2. For the same compound, the “light to heavy ratio (L/H ratio) of acetylated peptide […](ac)QLTVK (SEQ ID NO: 279)” value (ATP synthase subunit g mitochondrial [66], ATP5L, drug:DMSO) was 0.56 log 2, the “light to heavy ratio (L/H ratio) of acetylated peptide FEDPK(ac)FEVIEKPQA (SEQ ID NO: 325)” value (ATP synthase-coupling factor 6 mitochondrial [99], ATP5J, drug:DMSO) was 0.00 log 2 and the “light to heavy ratio (L/H ratio) of acetylated peptide SAQEAYK(ac)SYIR (SEQ ID NO: 502)” value (ATP-dependent RNA helicase DDX18 [584], gene DDX18, inhibitor:DMSO) was −0.74 log 2. For the same compound, the “light to heavy ratio (L/H ratio) of acetylated peptide MQK(ac)[…] (SEQ ID NO: 526)” value (Actin aortic smooth muscle [317], gene ACTA2, inhibitor:DMSO) was −0.44 log 2, the “light to heavy ratio (L/H ratio) of acetylated peptide AFAK(ac)ELFLGK (SEQ ID NO: 627)” value (Acyl-CoA dehydrogenase family member 9 mitochondrial [41], gene ACAD9, inhibitor:DMSO) was 0.49 log 2 and the “light to heavy ratio (L/H ratio) of acetylated peptide YSAK(ac)DYFFK (SEQ ID NO: 319)” value (Alpha-soluble NSF attachment protein [203], NAPA, drug:DMSO) was 1.00 log 2. For the same compound, the “light to heavy ratio (L/H ratio), log 2 scale, acetylated peptide SELTGK(ac)FEK (SEQ ID NO: 778)” value (Annexin A5 [76], gene ANXA5, drug:DMSO) was 1.00, the “light to heavy ratio (L/H ratio) of acetylated peptide PAQGAK(ac)YR (SEQ ID NO: 305)” value (Annexin A6 [9], ANXA6, drug:DMSO) was 1.00 log 2 and the “light to heavy ratio (L/H ratio) of acetylated peptide TKYEK(ac)SLYSMIK (SEQ ID NO: 270)” value (Annexin A6 [299], ANXA6, drug:DMSO) was 0.46 log 2. For the same compound, the “light to heavy ratio (L/H ratio) of acetylated peptide NDTSGEYK(ac)K (SEQ ID NO: 285)” value (Annexin A6 [314], ANXA6, drug:DMSO) was 0.61 log 2, the “light to heavy ratio (L/H ratio) of acetylated peptide AINEAYK(ac)EDYHK (SEQ ID NO: 282)” value (Annexin A6 [478], ANXA6, drug:DMSO) was 0.59 log 2 and the “light to heavy ratio (L/H ratio) of acetylated peptide NKPLFFADK(ac)LYK (SEQ ID NO: 298)” value (Annexin A6 [607], ANXA6, drug:DMSO) was 0.78 log 2.

Reference: patent publication US20140357512A1, “HISTONE DEACETYLASE (HDAC) BIOMARKERS IN MULTIPLE MYELOMA” (priority 2013, published 2014)
